Measurements taken from paper PMC6576746, “Rational discovery of dual-indication multi-target PDE/Kinase inhibitor for precision anti-cancer therapy using structural systems pharmacology” (PLoS Computational Biology, 2019).

Assays:
Experiment in all cases: biochemical
Set-up in all cases: DiscoverX KinomeScan competition binding assay across human kinases; per cent of control at 10 and 100 uM
[1] = molecular target: CDK7 (Homo sapiens, UniProt P50613); conditions: competition binding, % of control; read-out: Percent Control (100 uM Levosimendan)
Experimental: (§1) To validate our computational predictions, we employed a competition binding assay to detect the binding of levosimendan to 425 human kinases as well as its dose-response curve to RIOK1. The proprietary KinomeScan assay was performed by DiscoverX (Fremont, California, USA). The tests were performed at 10 μM and 100 μM concentrations of levosimendan, respectively. Assay results were reported as %control, calculated as follows: %control=(TestCompoundSignal−PositiveControlSignal)/(NegativeControlSignal−PositiveControlSignal)×100 KinomeScan assay across 452 human kinases verified our computational prediction (S1 Table). RIOK1 is one of the strongest inhibited kinases by levosimendan. The percentage control of RIOK1 is 15.0 and 0.0 under the treatment of 10 μM and 100 μM of levosimendan, respectively. […] The percentage controls of five kinases: FLT3, MAP2K5, PIP5K1A, GAK, and KIT are less than 30.0 under the treatment of both 10 μM and 100 μM of levosimendan. Both FLT3 and KIT are tyrosine protein kinases. Their inhibitors have recently been approved for the treatment of Acute Myeloid Leukemia and other types of cancers, but a combination therapy is needed to overcome rapidly emerged drug resistance, thus improve patients’ drug responses. Other kinases inhibited by levosimendan belong to serine/threonine protein kinase family (RIOK1, RIOK3, GAK, and MAP2K5) and lipid kinase family (PIP5K1A). […] As a result, levosimendan may modulate different cancer pathways from those by the tyrosine protein kinase inhibitors, and it could be a novel lead compound for a new anti-cancer therapy to overcome drug resistance of existing drugs or to target different types of cancers through polypharmacology or drug combination.

[2] = molecular target: T1, SGK (Homo sapiens, UniProt O00141); conditions: competition binding, % of control
T1 construct: gene SGK1
T1 sequence (O00141 whole entry): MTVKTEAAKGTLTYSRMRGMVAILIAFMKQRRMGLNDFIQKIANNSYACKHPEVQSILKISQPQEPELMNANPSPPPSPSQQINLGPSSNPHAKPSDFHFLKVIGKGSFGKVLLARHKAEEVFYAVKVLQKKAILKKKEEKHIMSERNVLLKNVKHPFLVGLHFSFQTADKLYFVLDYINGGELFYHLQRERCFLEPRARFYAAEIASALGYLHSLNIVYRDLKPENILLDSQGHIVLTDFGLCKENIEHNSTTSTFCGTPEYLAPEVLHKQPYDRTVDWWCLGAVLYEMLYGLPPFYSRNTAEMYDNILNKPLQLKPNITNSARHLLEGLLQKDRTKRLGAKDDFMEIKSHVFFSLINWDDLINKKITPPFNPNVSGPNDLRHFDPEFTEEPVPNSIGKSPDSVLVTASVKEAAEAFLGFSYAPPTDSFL
Experimental: as §1

[3] = molecular target: MYO3B (Homo sapiens, UniProt Q8WXR4); conditions: competition binding, % of control; read-out: Percent Control (100 uM Levosimendan)
Experimental: as §1

[4] = molecular target: ROCK2 (Homo sapiens, UniProt O75116); conditions: competition binding, % of control
Chain of ROCK2 (O75116 whole entry): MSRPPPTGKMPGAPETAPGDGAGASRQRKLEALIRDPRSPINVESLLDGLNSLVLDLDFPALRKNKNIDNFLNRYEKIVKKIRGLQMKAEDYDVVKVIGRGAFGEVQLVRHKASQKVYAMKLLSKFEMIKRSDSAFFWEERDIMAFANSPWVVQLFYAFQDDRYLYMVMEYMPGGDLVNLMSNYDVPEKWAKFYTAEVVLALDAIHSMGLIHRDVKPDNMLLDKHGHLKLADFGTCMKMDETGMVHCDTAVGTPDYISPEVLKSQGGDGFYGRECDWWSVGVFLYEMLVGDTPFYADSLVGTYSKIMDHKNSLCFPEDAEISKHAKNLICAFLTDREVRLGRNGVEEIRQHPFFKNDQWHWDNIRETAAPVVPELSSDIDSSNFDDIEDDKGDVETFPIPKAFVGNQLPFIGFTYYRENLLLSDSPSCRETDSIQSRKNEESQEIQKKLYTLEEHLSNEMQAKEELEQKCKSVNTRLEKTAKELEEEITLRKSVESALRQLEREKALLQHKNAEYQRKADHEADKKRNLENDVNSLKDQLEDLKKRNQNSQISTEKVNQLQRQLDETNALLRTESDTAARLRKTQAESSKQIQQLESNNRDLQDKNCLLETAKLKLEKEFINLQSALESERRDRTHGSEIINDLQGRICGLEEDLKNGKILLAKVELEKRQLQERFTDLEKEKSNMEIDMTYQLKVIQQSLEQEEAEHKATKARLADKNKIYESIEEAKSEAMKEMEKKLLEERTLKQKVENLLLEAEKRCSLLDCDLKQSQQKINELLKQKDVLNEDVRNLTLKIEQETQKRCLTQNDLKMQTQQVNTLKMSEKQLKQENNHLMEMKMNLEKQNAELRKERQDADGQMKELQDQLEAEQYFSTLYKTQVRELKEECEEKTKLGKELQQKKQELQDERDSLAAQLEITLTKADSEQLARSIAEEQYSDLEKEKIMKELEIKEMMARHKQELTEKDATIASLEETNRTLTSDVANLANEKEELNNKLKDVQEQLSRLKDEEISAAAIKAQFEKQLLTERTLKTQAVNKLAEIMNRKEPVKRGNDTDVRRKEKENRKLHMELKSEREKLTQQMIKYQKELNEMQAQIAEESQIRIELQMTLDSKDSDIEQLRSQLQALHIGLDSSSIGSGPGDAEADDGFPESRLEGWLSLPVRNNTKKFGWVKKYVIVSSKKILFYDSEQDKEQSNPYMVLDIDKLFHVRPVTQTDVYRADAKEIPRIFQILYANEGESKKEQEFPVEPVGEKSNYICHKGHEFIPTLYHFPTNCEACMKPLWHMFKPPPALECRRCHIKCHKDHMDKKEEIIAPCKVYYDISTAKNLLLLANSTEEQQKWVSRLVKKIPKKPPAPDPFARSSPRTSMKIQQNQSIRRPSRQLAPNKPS
Experimental: as §1

[5] = molecular target: KIT-autoinhibited (Homo sapiens, UniProt P10721); conditions: competition binding, % of control
Chain of KIT-autoinhibited (P10721 whole entry): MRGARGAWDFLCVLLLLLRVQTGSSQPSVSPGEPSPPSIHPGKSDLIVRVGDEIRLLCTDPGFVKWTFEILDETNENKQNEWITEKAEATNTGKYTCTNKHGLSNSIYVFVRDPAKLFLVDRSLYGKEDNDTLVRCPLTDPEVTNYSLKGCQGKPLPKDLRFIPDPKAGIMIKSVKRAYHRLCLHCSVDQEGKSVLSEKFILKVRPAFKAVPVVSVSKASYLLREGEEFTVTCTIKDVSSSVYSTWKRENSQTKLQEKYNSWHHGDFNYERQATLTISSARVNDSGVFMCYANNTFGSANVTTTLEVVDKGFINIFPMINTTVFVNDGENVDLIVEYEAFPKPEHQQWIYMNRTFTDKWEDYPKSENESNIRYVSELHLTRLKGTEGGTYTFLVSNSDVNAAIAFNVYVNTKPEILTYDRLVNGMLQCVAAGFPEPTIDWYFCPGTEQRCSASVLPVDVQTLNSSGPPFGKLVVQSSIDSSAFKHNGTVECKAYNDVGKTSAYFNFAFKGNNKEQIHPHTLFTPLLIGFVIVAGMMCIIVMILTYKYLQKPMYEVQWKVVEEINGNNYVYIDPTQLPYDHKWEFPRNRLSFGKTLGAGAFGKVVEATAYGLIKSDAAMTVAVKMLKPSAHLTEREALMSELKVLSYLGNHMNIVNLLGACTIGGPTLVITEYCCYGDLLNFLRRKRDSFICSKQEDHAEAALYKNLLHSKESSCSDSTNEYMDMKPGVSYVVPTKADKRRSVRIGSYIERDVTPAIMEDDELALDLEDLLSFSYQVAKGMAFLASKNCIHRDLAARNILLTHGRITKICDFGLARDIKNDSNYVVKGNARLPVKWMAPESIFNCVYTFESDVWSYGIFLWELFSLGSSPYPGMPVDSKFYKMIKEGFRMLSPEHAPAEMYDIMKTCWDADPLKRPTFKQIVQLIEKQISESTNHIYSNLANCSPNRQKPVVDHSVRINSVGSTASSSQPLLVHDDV
Experimental: as §1

[6] = molecular target: PIK3CA(E545A) (Homo sapiens, UniProt P42336, E545A); conditions: competition binding, % of control; read-out: Percent Control (100 uM Levosimendan)
Experimental: as §1

[7] = molecular target: T2, CDK11 (Homo sapiens, UniProt Q9BWU1); conditions: competition binding, % of control; read-out: Percent Control (100 uM Levosimendan)
T2 construct: gene CDK19
Experimental: as §1

[8] = molecular target: T3, MLCK (Homo sapiens, UniProt Q32MK0); conditions: competition binding, % of control; read-out: Percent Control (100 uM Levosimendan)
T3 construct: gene MYLK3
Experimental: as §1

[9] = molecular target: MELK (Homo sapiens, UniProt Q14680); conditions: competition binding, % of control; read-out: Percent Control (100 uM Levosimendan)
Experimental: as §1

[10] = molecular target: CSNK1A1 (Homo sapiens, UniProt P48729); conditions: competition binding, % of control
Chain of CSNK1A1 (P48729 whole entry): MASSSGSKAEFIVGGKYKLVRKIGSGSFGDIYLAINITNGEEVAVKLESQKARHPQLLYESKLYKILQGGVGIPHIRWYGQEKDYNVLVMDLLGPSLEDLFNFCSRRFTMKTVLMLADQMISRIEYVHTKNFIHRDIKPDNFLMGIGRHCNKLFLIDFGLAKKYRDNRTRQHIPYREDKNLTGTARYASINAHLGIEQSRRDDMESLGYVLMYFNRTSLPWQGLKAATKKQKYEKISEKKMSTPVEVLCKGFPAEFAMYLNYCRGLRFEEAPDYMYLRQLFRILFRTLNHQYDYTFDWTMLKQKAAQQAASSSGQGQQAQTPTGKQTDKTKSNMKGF
Experimental: as §1

[11] = molecular target: INSR (Homo sapiens, UniProt P06213); conditions: competition binding, % of control; read-out: Percent Control (100 uM Levosimendan)
Experimental: as §1

[12] = molecular target: T4, VPS34 (Homo sapiens, UniProt Q8NEB9); conditions: competition binding, % of control; read-out: Percent Control (100 uM Levosimendan)
T4 construct: gene PIK3C3
T4 sequence (Q8NEB9 whole entry): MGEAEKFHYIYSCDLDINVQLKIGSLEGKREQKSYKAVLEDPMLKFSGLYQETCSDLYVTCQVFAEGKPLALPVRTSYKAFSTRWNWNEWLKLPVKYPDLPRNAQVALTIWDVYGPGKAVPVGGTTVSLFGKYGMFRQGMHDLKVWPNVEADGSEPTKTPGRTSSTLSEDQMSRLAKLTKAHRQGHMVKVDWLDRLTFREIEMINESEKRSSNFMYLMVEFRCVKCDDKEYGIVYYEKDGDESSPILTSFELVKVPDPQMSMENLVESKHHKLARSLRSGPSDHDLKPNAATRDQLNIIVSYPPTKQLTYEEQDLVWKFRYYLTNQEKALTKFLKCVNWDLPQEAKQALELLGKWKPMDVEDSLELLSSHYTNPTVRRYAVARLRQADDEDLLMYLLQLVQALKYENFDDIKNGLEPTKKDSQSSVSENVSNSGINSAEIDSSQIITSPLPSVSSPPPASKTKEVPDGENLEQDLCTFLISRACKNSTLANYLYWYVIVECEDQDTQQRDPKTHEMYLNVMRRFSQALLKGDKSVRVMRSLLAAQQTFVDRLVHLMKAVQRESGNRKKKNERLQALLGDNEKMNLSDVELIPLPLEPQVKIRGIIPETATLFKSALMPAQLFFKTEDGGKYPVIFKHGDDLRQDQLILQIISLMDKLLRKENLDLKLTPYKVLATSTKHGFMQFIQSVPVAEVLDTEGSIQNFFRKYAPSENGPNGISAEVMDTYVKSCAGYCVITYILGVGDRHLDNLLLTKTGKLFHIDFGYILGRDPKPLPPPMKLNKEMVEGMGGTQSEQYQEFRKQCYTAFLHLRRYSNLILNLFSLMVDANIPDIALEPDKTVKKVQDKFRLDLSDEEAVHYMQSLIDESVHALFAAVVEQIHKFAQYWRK
Experimental: as §1

[13] = molecular target: CDKL5 (Homo sapiens, UniProt O76039); conditions: competition binding, % of control; read-out: Percent Control (100 uM Levosimendan)
Experimental: as §1

[14] = molecular target: DAPK3 (Homo sapiens, UniProt O43293); conditions: competition binding, % of control; read-out: Percent Control (100 uM Levosimendan)
Experimental: as §1

[15] = molecular target: T5, RPS6KA5(Kin.Dom.1-N-terminal) (Homo sapiens, UniProt O75582); conditions: competition binding, % of control; read-out: Percent Control (100 uM Levosimendan)
T5 construct: Kin.Dom.1-N-terminal
Experimental: as §1

[16] = molecular target: LATS2 (Homo sapiens, UniProt Q9NRM7); conditions: competition binding, % of control; read-out: Percent Control (100 uM Levosimendan)
Experimental: as §1

[17] = molecular target: STK35 (Homo sapiens, UniProt Q8TDR2); conditions: competition binding, % of control; read-out: Percent Control (100 uM Levosimendan)
Chain of STK35 (Q8TDR2 whole entry): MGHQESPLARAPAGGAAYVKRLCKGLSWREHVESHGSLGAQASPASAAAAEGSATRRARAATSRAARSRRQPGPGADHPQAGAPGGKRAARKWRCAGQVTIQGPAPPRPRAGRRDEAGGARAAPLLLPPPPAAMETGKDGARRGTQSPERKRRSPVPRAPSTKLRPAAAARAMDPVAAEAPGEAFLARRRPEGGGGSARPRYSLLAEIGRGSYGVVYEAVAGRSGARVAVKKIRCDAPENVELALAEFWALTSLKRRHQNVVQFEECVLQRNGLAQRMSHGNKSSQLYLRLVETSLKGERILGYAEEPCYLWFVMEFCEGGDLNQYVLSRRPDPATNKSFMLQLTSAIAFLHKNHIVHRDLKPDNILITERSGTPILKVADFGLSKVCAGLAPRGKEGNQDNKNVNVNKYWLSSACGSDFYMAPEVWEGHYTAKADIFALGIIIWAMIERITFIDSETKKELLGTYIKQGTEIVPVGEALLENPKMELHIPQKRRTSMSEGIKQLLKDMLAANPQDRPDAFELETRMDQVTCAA
Experimental: as §1

[18] = molecular target: EPHA1 (Homo sapiens, UniProt P21709); conditions: competition binding, % of control; read-out: Percent Control (100 uM Levosimendan)
Experimental: as §1

[19] = molecular target: PHKG2 (Homo sapiens, UniProt P15735); conditions: competition binding, % of control
Chain of PHKG2 (P15735 whole entry): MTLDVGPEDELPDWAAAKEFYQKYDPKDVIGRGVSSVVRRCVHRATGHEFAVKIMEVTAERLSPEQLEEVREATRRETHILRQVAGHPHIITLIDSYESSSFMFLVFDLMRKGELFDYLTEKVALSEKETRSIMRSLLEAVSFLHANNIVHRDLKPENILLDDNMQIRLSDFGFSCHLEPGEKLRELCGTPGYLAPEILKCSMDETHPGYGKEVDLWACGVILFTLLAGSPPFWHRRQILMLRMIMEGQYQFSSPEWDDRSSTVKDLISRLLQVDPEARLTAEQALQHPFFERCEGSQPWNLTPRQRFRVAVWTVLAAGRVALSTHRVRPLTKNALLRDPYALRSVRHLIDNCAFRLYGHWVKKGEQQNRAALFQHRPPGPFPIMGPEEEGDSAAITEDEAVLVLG
Experimental: as §1

[20] = read-out: Percent Control (10 uM Levosimendan)
[21] = read-out: Percent Control (100 uM Levosimendan)

remaining binding at 100 µM [1]: 100%
remaining binding at 10 µM [2, 20]: 81%
remaining binding at 100 µM [2, 21]: 40%
remaining binding at 100 µM [3]: 100%
remaining binding at 10 µM [4, 20]: 49%
remaining binding at 100 µM [4, 21]: 4.9%
remaining binding at 10 µM [5, 20]: 76%
remaining binding at 100 µM [5, 21]: 52%
remaining binding at 100 µM [6]: 68%
remaining binding at 100 µM [7]: 100%
remaining binding at 100 µM [8]: 100%
remaining binding at 100 µM [9]: 100%
remaining binding at 10 µM [10, 20]: 98%
remaining binding at 100 µM [10, 21]: 42%
remaining binding at 100 µM [11]: 76%
remaining binding at 100 µM [12]: 100%
remaining binding at 100 µM [13]: 94%
remaining binding at 100 µM [14]: 60%
remaining binding at 100 µM [15]: 62%
remaining binding at 100 µM [16]: 100%
remaining binding at 100 µM [17]: 81%
remaining binding at 100 µM [18]: 98%
remaining binding at 10 µM [19, 20]: 55%
remaining binding at 100 µM [19, 21]: 47%
Compound: C[C@@H]1CC(=O)NN=C1c1ccc(NN=C(C#N)C#N)cc1 [levosimendan]
